{"source": "paper PMC12128972", "about": "“TYRA-300, an FGFR3-selective inhibitor, promotes bone growth in two FGFR3-driven models of chondrodysplasia” (JCI Insight, 2025)", "key": {"[1]": {"tested_on": "foramen magnum of Fgfr3^N534K/+ mice", "assay": "Fgfr3N534K/+ mice: microCT of foramen magnum, grade of synchondroses", "format": "in vivo, mouse", "set-up": "key to grade of synchondroses after treatment: I: border of synchondroses were completely separated; II: clear separation of synchondroses with some areas suspicious for bone bridging; III: synchondroses showing bony bridge between 2 borders; IV: completely fused synchondroses with remnants of margin (cartilage); V: completely fused synchondroses; source data of Figure 5C (sheet \"5C\"): grade of synchondroses: scale not given here", "procedure": "Finally, to confirm the effects of TYRA-300 on the axial skeleton in Fgfr3^N534K/+ mice, μCT imaging of the foramen magnum was performed at the end of treatment.\n(§1) Whole body x-ray images were taken of all animals by Faxitron specimen radiography MX-20 (Faxitron X-Ray LLC) following terminal sacrifice. The length of the L4–L6 lumbar vertebra segment was also measured for each animal using calipers, and the height of the L5 vertebral body was measured from Alcian blue/Sirius red images. Long bones and the skull were then excised, and their dimensions were measured using calipers (VWRi819-0013, VWR International). The transverse and sagittal diameters of the foramen magnum were also measured using calipers for the Fgfr3^Y367/+ model, and measured using the μCT images for the Fgfr3^N534K/+ model.\nThe heads of all mice were isolated, and skin was stripped before being placed in 70% ethanol at 4°C. μCT images of the skulls were measured on the Skyscan-1272 (Bruker) with the following parameters: 10 μm resolution, 680 ms exposure, 70 kV, 142 μA, and 0.350° rotation step. The μCT data were analyzed using DataViewer and CTAn software (version 1.20.8) to perform postprocessing techniques in 3D. The nasio-occipital length and anteroposterior length of the skull were measured using 2D μCT images."}, "[2]": {"tested_on": "Fgfr3^N534K/+ mouse model of HCH", "assay": "Fgfr3N534K/+ mice: long bone length", "format": "in vivo", "procedure": "To explore the effectiveness of TYRA-300 in an additional model of FGFR3-related chondrodysplasia, TYRA-300 was evaluated in a Tg-CMV^Cre/+/Fgfr3^N534K/+ mouse model of HCH ([42]). This model is driven by the Fgfr3 N534K mutation, which corresponds to the human FGFR3 N540K mutation ([9], [43]). This model closely recapitulates the skeletal phenotype of HCH in humans, with a milder disproportionate short stature phenotype ([42]). […] Because the goal of treatment with TYRA-300 is to […] Fgfr3 signaling levels, Fgfr3^N534K/+ mice were administered a lower dose of 1.8 mg/kg TYRA-300 daily for the full study. Mice were treated for 21 days, from 3 to 24 days of age. Treatment was started at an older age in the HCH model than in the ACH model, as children with HCH are often diagnosed later than children with ACH.\nTg-CMV^Cre/+/Fgfr3^N534K/+ mice were tattooed and assigned to treatment groups within each litter at 3 days of age (wild-type mice, Fgfr3^N534K/+ mice treated with vehicle, or Fgfr3^N534K/+ mice treated with 1.8 mg/kg TYRA-300). TYRA-300 was dissolved in aqueous HCl (3.5 mM) containing 5% DMSO and administered subcutaneously to Fgfr3^N534K/+ mice (n = 9) for 21 days. The vehicle was administered to wild-type (n = 12) or Fgfr3^N534K/+ mice (n = 11) for 21 days. Subcutaneous administration was used for this study rather than oral gavage due to the size of the mice. Clinical observations, nasoanal length, and tail length measurements were performed every 3 days, and body weights were collected daily.\nas §1"}, "[3]": {"tested_on": "wild-type C57BL/6J mice", "assay": "Wild-type mouse growth velocity study", "format": "in vivo", "set-up": "nasoanal length, individual mice: unit not given here", "details": "for femur length by calipers, individual mice / tibia length by calipers, individual mice: final day of treatment (8 weeks of age), in mm (unit assumed); for femurs longer than vehicle / tibias longer than vehicle: 4 weeks of treatment", "procedure": "To determine the in vivo effect of FGFR3 inhibition under normal physiologic conditions, TYRA-300 was tested in a growth velocity assay in wild-type mice ([32]). In this study, wild-type C57BL/6J mice were dosed orally with TYRA-300 once daily from 4 to 8 weeks of age. […] Based on the doses evaluated for infigratinib in oncology and ACH, a lower dose was thought to be more appropriate for long-term treatment of pediatric growth–related conditions. We therefore initially explored doses in the 8 to 14 mg/kg range in this model. […] Specifically, after treatment with 12 mg/kg TYRA-300, the tibias were on average 3.9% longer than the tibias of mice that received treatment with vehicle, and the femurs were on average 5.0% longer after treatment; additionally, with 14 mg/kg TYRA-300, the tibias were 6.4% longer and the femurs were 8.2% longer. There was no difference in body weight among the treatment groups (data not shown).\nAt 21 days of age, female C57BL/6J mice (The Jackson Laboratory) were subject to nasoanal length and nasotail length measurement while under anesthesia. Tail length was calculated by subtracting nasoanal length from nasotail length. Body weights were also recorded. One week later, at 28 days of age, nasoanal lengths and body weights were measured again and mice were randomized to treatment groups of 12 mice per group according to nasoanal length. TYRA-300 was dissolved in 30% hydroxypropyl-β-cyclodextrin for administration by oral gavage. Mice were dosed orally with TYRA-300 or vehicle control once daily (QD) for 4 weeks, and nasoanal lengths and body weights were monitored once weekly, along with daily clinical observations. Mouse tibias and femurs were collected and measured with calipers at the end of the study."}, "[4]": {"details": "1.8 mg/kg daily for 21 days, microCT"}, "[5]": {"details": "1.8 mg/kg daily s.c. for 21 days, 3 to 24 days of age"}, "[6]": {"details": "Fgfr3N534K/+ mice + TYRA-300, individual animal values, in mm (unit assumed)"}, "[7]": {"details": "12 mg/kg oral daily from week 4, week 3 of age (before treatment)"}, "[8]": {"details": "12 mg/kg oral daily from week 4, week 4 of age (start of treatment)"}, "[9]": {"details": "12 mg/kg oral daily from week 4, week 5 of age"}, "[10]": {"details": "12 mg/kg oral daily from week 4, week 6 of age"}, "[11]": {"details": "12 mg/kg oral daily from week 4, week 7 of age"}, "[12]": {"details": "12 mg/kg oral daily from week 4, week 8 of age"}, "[13]": {"details": "14 mg/kg oral daily from week 4, week 3 of age (before treatment)"}, "[14]": {"details": "14 mg/kg oral daily from week 4, week 4 of age (start of treatment)"}}, "note": "Values joined by “and” are separate entries in the source; they are usually repeats but may differ in a detail not shown here. Equal values may be shown once."}
{"compound": "C[C@@H](Oc1ccc2[nH]nc(-c3ccc(N4CC5(C4)CN(S(C)(=O)=O)C5)nc3)c2c1)c1c(Cl)cncc1Cl", "note": "[TYRA-300]", "values": [{"measurement": "change in transverse diameter of the foramen magnum", "setting": "[1]; 1.8 mg/kg daily for 21 days, data not shown", "result": "not a statistically significant change"}, {"measurement": "increase in area of the foramen magnum vs vehicle", "setting": "[1]; [4]", "result": 7.51, "unit": "%"}, {"measurement": "increase in sagittal diameter of the foramen magnum vs vehicle", "setting": "[1]; [4]", "result": 6.35, "unit": "%"}, {"measurement": "grade of synchondroses after treatment", "setting": "[1]; 1.8 mg/kg daily for 21 days, most mice, vehicle grade V", "result": "IV"}, {"measurement": "source data of Figure 5C (sheet \"5C\"): grade of synchondroses", "setting": "[1]; Fgfr3N534K/+ mice + TYRA-300, individual animal values", "result": "5 and 4"}, {"measurement": "increase in femur length vs vehicle", "setting": "[2]; [5]", "result": 3.70, "unit": "%"}, {"measurement": "increase in humerus length vs vehicle", "setting": "[2]; [5]", "result": 3.22, "unit": "%"}, {"measurement": "increase in tibia length vs vehicle", "setting": "[2]; [5]", "result": 3.75, "unit": "%"}, {"measurement": "increase in ulna length vs vehicle", "setting": "[2]; [5]", "result": 5.03, "unit": "%"}, {"measurement": "source data of Figure 4A (sheet \"4A\"): long bone length, bone not given", "setting": "[2]; [6]", "result": "12.31 and 12.55 and 12.375 and 11.91 and 12.485 and 12.9 and 12.58 and 12.185 and 11.555"}, {"measurement": "source data of Figure 4B (sheet \"4B\"): long bone length, bone not given", "setting": "[2]; [6]", "result": "10.06 and 10.16 and 10.36 and 9.8 and 10.2 and 10.18 and 10.1 and 10.15 and 9.47"}, {"measurement": "source data of Figure 4C (sheet \"4C\"): long bone length, bone not given", "setting": "[2]; [6]", "result": "10.705 and 10.605 and 11.015 and 10.35 and 10.8 and 10.795 and 10.61 and 11.13 and 10.195"}, {"measurement": "source data of Figure 4D (sheet \"4D\"): long bone length, bone not given", "setting": "[2]; [6]", "result": "8.28 and 8.42 and 8.455 and 8.1 and 8.32 and 8.43 and 8.22 and 8.35 and 8.08"}, {"measurement": "average normalization of long bone length toward wild-type", "setting": "[2]; HCH model, 1.8 mg/kg", "result": 25, "unit": "%"}, {"measurement": "nasoanal length and tibia and femur length vs vehicle", "setting": "[3]; 8 mg/kg and 10 mg/kg, data not shown, P < 0.05", "result": "significant increases"}, {"measurement": "tail length and tibia and femur length vs vehicle", "setting": "[3]; 12 mg/kg and 14 mg/kg oral once daily, 4 weeks", "result": "increased significantly and dose-dependently"}, {"measurement": "nasoanal length, individual mice", "setting": "[3]; [7]", "result": "6.5 and 7.5 (2×) and 7.3 and 7 (3×) and 6.8 (2×) and 6.2 and 7.2 and 6"}, {"measurement": "tail length, individual mice", "setting": "[3]; [7]", "result": "5.7 and 6.3 and 6 (2×) and 6.2 and 5.6 and 5.5 and 6.4 and 6.6 and 5.9 and 5.3 and 5.8"}, {"measurement": "nasoanal length, individual mice", "setting": "[3]; [8]", "result": "7.7 (3×) and 8.2 and 7.8 (3×) and 8 (2×) and 7.2 and 8.3 and 7.3"}, {"measurement": "tail length, individual mice", "setting": "[3]; [8]", "result": "5.9 and 7.2 (2×) and 6.9 (2×) and 6.7 and 6.8 and 6.3 and 6.4 (2×) and 5.7 and 6.5"}, {"measurement": "nasoanal length, individual mice", "setting": "[3]; [9]", "result": "8.2 and 8.6 (3×) and 8.5 (2×) and 8.7 and 8.3 (3×) and 9 and 7.7"}, {"measurement": "tail length, individual mice", "setting": "[3]; [9]", "result": "6.8 and 7.2 (3×) and 7.3 (2×) and 7.1 (2×) and 6.7 and 7.4 and 7.8 and 6.5"}, {"measurement": "nasoanal length, individual mice", "setting": "[3]; [10]", "result": "8.6 (2×) and 8.8 (2×) and 8.7 (3×) and 9.2 and 9.1 and 9 and 9.3 and 8.4"}, {"measurement": "tail length, individual mice", "setting": "[3]; [10]", "result": "7.3 and 7.8 (2×) and 7.9 and 7.7 (3×) and 7.6 (2×) and 8 and 8.2 and 7"}, {"measurement": "nasoanal length, individual mice", "setting": "[3]; [11]", "result": "8.8 and 9.1 (2×) and 9 (3×) and 9.4 and 9.3 and 9.5 and 10 and 9.2 and 8.7"}, {"measurement": "tail length, individual mice", "setting": "[3]; [11]", "result": "7.9 (2×) and 8 (3×) and 8.2 and 7.7 (2×) and 8.3 and 8.5 and 7.3 and 8.1"}, {"measurement": "nasoanal length, individual mice", "setting": "[3]; [12]", "result": "9.2 (3×) and 9.3 (5×) and 9.4 and 9.5 and 10 and 8.8"}, {"measurement": "tail length, individual mice", "setting": "[3]; [12]", "result": "7.8 and 8.2 and 7.9 and 8.1 (4×) and 8.3 and 8 and 8.5 and 8.6 and 7.5"}, {"measurement": "femur length by calipers, individual mice", "setting": "[3]; 12 mg/kg oral daily", "result": "13.78 and 13.37 and 14.79 and 13.97 and 13.86 and 12.93 and 14.23 and 13.91 and 13.8 and 13.51 and 13.98"}, {"measurement": "tibia length by calipers, individual mice", "setting": "[3]; 12 mg/kg oral daily", "result": "15.08 and 16.34 and 16.3 and 17.19 and 16.6 and 15.75 and 16.27 and 16.06 and 16.41 and 16.46 and 17"}, {"measurement": "femurs longer than vehicle", "setting": "[3]; 12 mg/kg oral once daily", "result": 5.0, "unit": "%"}, {"measurement": "tibias longer than vehicle", "setting": "[3]; 12 mg/kg oral once daily", "result": 3.9, "unit": "%"}, {"measurement": "nasoanal length, individual mice", "setting": "[3]; [13]", "result": "6.6 and 7.6 (2×) and 7.3 (2×) and 6.7 and 6.3 and 7.1 and 7.2 (2×) and 6.8 and 6.9"}, {"measurement": "tail length, individual mice", "setting": "[3]; [13]", "result": "5.5 (2×) and 6 (2×) and 6.4 (2×) and 6.1 and 5.3 and 5.7 and 5.6 (3×)"}, {"measurement": "nasoanal length, individual mice", "setting": "[3]; [14]", "result": "7.7 (2×) and 8.2 (2×) and 7.8 (4×) and 8 (2×) and 7.3 and 7.2"}, {"measurement": "tail length, individual mice", "setting": "[3]; [14]", "result": "6.3 and 6.9 (2×) and 7 (2×) and 6.8 and 6 (2×) and 6.4 (2×) and 6.6 and 6.7"}, {"measurement": "nasoanal length, individual mice", "setting": "[3]; 14 mg/kg oral daily from week 4, week 5 of age", "result": "8.7 (2×) and 8.5 and 8.6"}, {"measurement": "tail length, individual mice", "setting": "[3]; 14 mg/kg oral daily from week 4, week 5 of age, in cm (unit assumed)", "result": "7 and 7.6 and 7.4 and 7.5"}, {"measurement": "femur length by calipers, individual mice", "setting": "[3]; 14 mg/kg oral daily", "result": "14.47 and 14.13 and 13.58 and 13.93 and 13.04 and 14.9 and 14.56 and 14.74 and 14.08 and 15.12 and 14.91 and 13.6"}, {"measurement": "tibia length by calipers, individual mice", "setting": "[3]; 14 mg/kg oral daily", "result": "16.57 and 16.39 and 16.89 and 16.61 and 16.95 and 17.24 and 16.1 and 17.47 and 16.69 and 16.27"}, {"measurement": "increase in nasoanal length vs vehicle", "setting": "[3]; 14 mg/kg oral once daily, 4 to 8 weeks of age", "result": 7.3, "unit": "%"}, {"measurement": "femurs longer than vehicle", "setting": "[3]; 14 mg/kg oral once daily", "result": 8.2, "unit": "%"}, {"measurement": "tibias longer than vehicle", "setting": "[3]; 14 mg/kg oral once daily", "result": 6.4, "unit": "%"}, {"measurement": "body weight among the treatment groups", "setting": "[3]; oral once daily, data not shown", "result": "no difference"}]}
